Source: patent US11479587B2, “Cationic intrinsically disordered antimicrobial peptides” (priority 2016, dated 2022)
Several values for one entry are separate records, joined by “and”; a condition that tells them apart may be missing. Identical values can stand only once. Residues, ends and D or L forms follow the SMILES beside them. No end group written: not given here. *: point of attachment. Palmitoyl = CCCCCCCCCCCCCCCC(=O)*

What was measured:
[1] = test system: methicillin-resistant S. aureus strain (ATCC 43300); format: cell-based, Staphylococcus aureus; details: ATCC 43300, 18 h
Protocol: Furthermore, sensitivity of a methicillin-resistant S. aureus strain (ATCC 43300) was investigated for palmitoylated CIDAMPs in a microtiter plate screening model, with incubation in Mueller-Hinton medium at 37° C. for 18 h using resazurin as a marker for cell viability.
A sample of each culture was then diluted 40-fold in fresh broth and incubated at 37° C. for 1.5-3 h. […] All the plates were covered and incubated at 37° C. for 18 h.
Inhibition of bacterial growth was determined using resazurin as a marker for cell viability. Resazurin was added to each well, at 0.001% final concentration, and plates incubated at 37° C. for 2 h. Fluorescence intensity was measured, using F (top read), ex 560/10 nm, em 590/10 nm, using a Tecan M1000 Pro monochromator plate reader.

[2] = Cytotoxicity (resazurin) assay
Protocol: For the cytotoxicity (resazurin) assay, HEK293 cells were counted manually in a Neubauer haemocytometer and plated at a density of 4000 cells/well into each well of the 384-well plates containing the 25×(2 μl) concentrated compounds. The medium used was Dulbecco's modified eagle medium (DMEM) supplemented with 10% foetal bovine serum (FBS). Cells were incubated together with the compounds for 20 h at 37° C., 5% CO2. To measure cytotoxicity, 5 μl (equals 100 μM final) resazurin was added to each well after incubation, and incubated for further 3 h at 37° C. with 5% CO2.
After final incubation fluorescence intensity was measured as F ex 560/10 nm, em 590/10 nm (F560/590) using a Tecan M1000 Pro monochromator plate reader. […] The concentration dependent percentage cytotoxicity was fitted to a dose response function (using Pipeline Pilot) and CC50 values determined.

Hemolysis assay = format: cell-based
Protocol: For the hemolysis assays EDTA-blood was centrifuged at 800×g for 10 min, and the plasma and buffy coat were removed. The erythrocytes were washed three times and resuspended in 5% PBS, pH 7.4. The cells were then incubated with end-over-end rotation for 1 h at 37° C. in the presence of different concentrations of peptides (0, 3, 10, 30, 60 μm). 0.1% Triton X-100 (Sigma-Aldrich) served as positive control. The samples were then centrifuged at 800×g for 10 min.
The absorbance of hemoglobin release was measured at 540 nm and is expressed as % of Triton X-100-induced hemolysis. These values of triplicates were plotted with Graph Pad Prism 4 as a dose response curve and the CC50 was determined.

C. albicans ATCC 928 = details: for MIC: ATCC 928, 18 h, pH 7.4
[3] = test system: Burkholderia cepacia ATCC 25416; assay: CFU-assay, Burkholderia cepacia-cidal activity; format: cell-based

Molecule	MIC, S. aureus ATCC 43300 [1] [µg/mL]	CC50 [2]	HC50 (Hemolysis assay) [µg/mL]	MIC (C. albicans ATCC 928) [µg/mL]	MIC, C. neoformans ATCC 208821 (C. neoformans) [µg/mL]	further results
CCCCCCCCCCCCCCCC(=O)N[C@@H](Cc1c[nH]cn1)C(=O)NCC(=O)N[C@@H](CO)C(=O)N[C@@H](CCCNC(=N)N)C(=O)N[C@@H](CO)C(=O)NCC(=O)N[C@@H](CCC(N)=O)C(=O)N[C@@H](CO)C(=O)N[C@@H](CO)C(=O)N[C@@H](CCCNC(=N)N)C(=O)NCC(=O)N[C@@H](CCC(=O)O)C(=O)N[C@@H](CCCNC(=N)N)C(=O)N[C@@H](Cc1c[nH]cn1)C(=O)NCC(=O)N[C@@H](CO)C(=O)N[C@@H](CO)C(=O)N[C@@H](CO)C(=O)NCC(=O)N[C@@H](CO)C(=O)N[C@@H](CO)C(=O)N[C@@H](CO)C(=O)N[C@@H](Cc1c[nH]cn1)C(=O)O [Pal-HR 1-11] (HELM PEPTIDE1{[CCCCCCCCCCCCCCCC(=O)[*:2]].H.G.S.R.S.G.Q.S.S.R.G.E.R.H.G.S.S.S.G.S.S.S.H}$$$$V2.0)	>32	> 32 µg/mL				
N=C(N)NCCC[C@H](NC(=O)[C@H](CCCNC(=N)N)NC(=O)[C@H](CS)NC(=O)[C@H](CCCNC(=N)N)NC(=O)[C@H](Cc1c[nH]cn1)NC(=O)[C@H](CO)NC(=O)[C@H](CCCNC(=N)N)NC(=O)[C@H](CS)NC(=O)[C@H](CS)NC(=O)[C@H](CCCNC(=N)N)NC(=O)[C@H](Cc1c[nH]cn1)NC(=O)[C@H](Cc1c[nH]cn1)NC(=O)[C@@H](N)CO)C(=O)O [LCE3B5668] (H-SHHRCCRSHRCRR-OH; N-terminus and C-terminus assumed)	≥32					
CCCCCCCCCCCCCCCC(=O)NCC(=O)N[C@@H](CCCNC(=N)N)C(=O)N[C@@H](CCCNC(=N)N)C(=O)NCC(=O)NCC(=O)N[C@@H](CCCNC(=N)N)C(=O)NCC(=O)NCC(=O)N[C@@H](CCCNC(=N)N)C(=O)O [Pal-GR9] (HELM PEPTIDE1{[CCCCCCCCCCCCCCCC(=O)[*:2]].G.R.R.G.G.R.G.G.R}$$$$V2.0)	≥8	> 32 µg/mL and > 27.4 µM	> 300	1 to 32		HC50 at 1 h (Hemolysis assay; human, washed erythrocytes from EDTA-blood, pH 7.4): > 257 µM
Pal-GRRGSGLGRSSSRGGRGSGSGR (Palmitoyl-GRRGSGLGRSSSRGGRGSGSGR) [Pal-HR 1-18 4H-4R]						MBC90 ([3]; pH 7.3, 0.25% glucose): 75 µg/mL; MBC100 ([3]; pH 7.3, 0.25% glucose): 300 µg/mL; MBC90 ([3]; pH 7.3, 1% TSB): 75 µg/mL; MBC100 ([3]; pH 7.3, 1% TSB): 150 µg/mL
CCCCCCCCCCCCCCCC(=O)NCC(=O)N[C@@H](CCCNC(=N)N)C(=O)N[C@@H](CCCNC(=N)N)C(=O)NCC(=O)NCC(=O)N[C@@H](CCCNC(=N)N)C(=O)O [Pal-GR6, Pal-GRRGGR] (HELM PEPTIDE1{[CCCCCCCCCCCCCCCC(=O)[*:2]].G.R.R.G.G.R}$$$$V2.0)	≥16	> 32 µg/mL	> 300		≥16	
CCCCCCCCCCCCCCCC(=O)NCC(=O)N[C@@H](CCCNC(=N)N)C(=O)NCC(=O)N[C@@H](CCCNC(=N)N)C(=O)O [Pal-GR4, Pal-GRGR] (HELM PEPTIDE1{[CCCCCCCCCCCCCCCC(=O)[*:2]].G.R.G.R}$$$$V2.0)	≥8	> 32 µg/mL	100	1 to 32	≥8	MIC, C. albicans ATCC 90028 (C. albicans ATCC 928; ATCC 928): ≥8 µg/mL
